Laboratory results reported in patent US12582616B2, “Molecular targets for modulation of dissociative and associative states” (The Board of Trustees of the Leland Stanford Junior …, priority 2020, dated 2026).
“Also recorded” adds a separate entry of the source.

Columns and labels:
[1] = system: retrosplenial cortex (RSP); experiment: Widefield imaging of cortical activity in GCaMP6s mice; details: i.p. injection, ketamine 50 mg/kg
Source text: We recorded multiregional neuronal activity by leveraging widefield microscopy, a cleared skull preparation, and atlas registration in GCaMP6s-expressing mice (FIGS. 1A-1C)^6,8,15.
As described^8, mice were anesthetized with isoflurane, the scalp was removed, the skull cleaned and dried, and a custom head-plate was cemented to contacts over the cerebellum and in front of the olfactory bulb. The skull was then covered in a thin layer of cyanoacrylate glue (Apollo 2000, Cyberbond), clear dental acrylic (Ortho-Jet, Lang Dental), and clear nail polish (Electron Microscopy Services). […] (0.1 mg/kg) was injected subcutaneously for pain management. […] Imaging was performed on a custom-built fluorescence microscope designed for high light collection efficiency and large field of view. […] Alternating 410 nm and 488 nm illumination for non-Ca^2+ dependent artifact removal was controlled using a microcontroller (Arduino) slaved to the frame output trigger of the camera.
Analysis was performed using custom MATLAB (MathWorks) scripts. Widefield imaging videos were registered to a 2D top-projection atlas generated from the annotated Allen Brain Atlas volume, version CCFv2, in MATLAB (MathWorks), using an affine transformation computed from four manually selected control points. Each video was DF/F normalized, using the median for each pixel over the entire time series as F. The 410 nm channel was then temporally smoothed using a moving average (width=400 ms). The smoothed 410 nm DF/F signal for each pixel was regressed onto the 488 nm DF/F signal for the corresponding pixel, and the regression coefficients were used to scale the 410 nm channel to the 488 nm channel. This scaled 410 nm DF/F signal was then subtracted from the 488 nm DF/F signal to produce a normalized signal for each pixel. For quantification, activity traces were extracted from points centered in five cortical regions (visual, somatosensory, parietal, motor, retrosplenial) on the left hemisphere of the brain. The video data was Gaussian smoothed spatially (radius=2 pixels).
Each trace (corresponding to either a fiber photometry signal, a cellular two-photon signal, a widefield regional centroid, a widefield pixel, an sEEG trace, or a smoothed spike rate Neuropixels trace) was z-scored, and the power spectral density (PSD) was then estimated using Welch's method (pwelch( ) in Matlab), with a window size of 10*fs (15*fs for human sEEG) where fs is the sampling rate of the signal. The average band power within a specified band (i.e. 1-3 Hz) was then computed by integrating the PSD estimate (bandpower in Matlab). […] Unless otherwise indicated, the PSD was computed across the time window from minutes 10 to 11 post-injection.

[2] = system: mice; experiment: Tail suspension test; assay type: in vivo, mouse; details: PCP 5 mg/kg
Description: Tail Suspension Test: Mouse activity was recorded using a 60 Hz web camera. Struggling activity was quantified for minutes 2-10. […] Illumination began 30 seconds before tails were secured with tape and suspended from the beam. Mice were excluded if they climbed on their own tails.

[3] = system: mice; experiment: Hot plate test; details: for dissociation-like behavior (sensory-detection vs affective responses), hot plate: other drug classes
Description: Hot Plate Test: Mice were placed on the hot plate (Bioseb), which was set to 55° C. and surrounded by a clear circular perimeter. Mouse activity was recorded using two cameras from different angles. The experiment ended when the mouse jumped to escape or 90 seconds had elapsed. Care was taken to clean and dry the hot plate apparatus between animals. For optogenetic experiments, mice were connected to patch cords and then returned to a holding cage. Illumination began 30 seconds before mice were placed on the hot plate.

[4] = system: mice; experiment: Open field test; assay type: in vivo, mouse; details: 5 min session, compared with saline
Source text: Open Field Test: Mice were placed in an evenly illuminated 50 cm×50 cm open field test box. Mouse position was captured using a webcam and Viewer software (Biobserve).

| Compound | 1-3 Hz oscillation localized to retrosplenial cortex (RSP), widefield imaging [1] | longer-timescale escape and social behaviors [2] | dissociation-like behavior (sensory-detection vs affective responses), hot plate [3] | open-field locomotion velocity [4] | responsivity to salient stimuli (time-to-jump, rearing/socialization) ([3]; LSD 0.3 mg/kg) |
| --- | --- | --- | --- | --- | --- |
| C[C@]12N[C@H](Cc3ccccc31)c1ccccc12 [MK-801] | induced the RSP-localized oscillation | – | – | – | – |
| c1ccc(C2(N3CCCCC3)CCCCC2)cc1 [PCP, phencyclidine] | induced the RSP-localized oscillation | inhibited longer-timescale escape and social behaviors | recapitulated ketamine's behavioral disconnection between sensory-detection and affective responses | locomotion velocity was unchanged | – |
| Cc1cccc([C@H](C)c2cnc[nH]2)c1C [dexmedetomidine] | elicited waves of cortical activity without RSP restriction | – | – | – | – |
| CN1C(=O)CN=C(c2ccccc2)c2cc(Cl)ccc21 [diazepam] | Neither the GABAergic sedative diazepam nor the centrally-acting opioid-analgesic buprenorphine elicited the rhythm | – | did not recapitulate dissociative-like behavior | decreased velocity | – |
| CC12CC3CC(C)(C1)CC(N)(C3)C2 [memantine] | did not elicit oscillation | – | – | – | – |
| CC(C)c1cccc(C(C)C)c1O [propofol] | elicited waves of cortical activity without RSP restriction | – | – | – | – |
| (+)-Lysergic acid diethylamide (+)-tartrate (2:1) [LSD] | did not elicit oscillation | – | disrupted neither sensory-detection nor affective responses | reducing locomotion in the stimulus-poor open-field; also recorded: decreased velocity | tended to increase responsivity to salient stimuli |
